Here are results for three molecules from patent US20230220063A1, “IL-1BETA BINDING ANTIBODIES FOR USE IN TREATING CANCER” (NOVARTIS AG, priority 2017, published 2023).

Series [1] relates to patient-derived breast cancer cells. Nature of the series: Breast CSC mammosphere colony formation after exposure to human bone marrow in vitro. It counts as cell-based. An excerpt: (§1) Dissemination of tumour cells to bone marrow is an early event in breast cancer, however these cells may lie dormant in the bone environment for many years prior to eventual colonisation. Treatment for bone metastases is not curative, therefore new adjuvant therapies preventing disseminated cells from becoming metastatic lesions may be an effective therapeutic option to improve clinical outcomes. There is evidence that cancer stemcells (CSCs) within breast tumours are the cells capable of metastasis; however, little is known about which bone marrow-derived factors support dormant CSC survival and eventual colonisation. Using in vitro culture of primary human bone marrow and patient-derived breast cancer cells, and in vivo metastasis models of human breast cancer cells implanted into mice, we investigated signalling pathways regulating CSC colony formation in bone.
(§2) Dissemination of tumour cells to bone marrow is an early event in breast cancer, but these cells may lie dormant in the bone environment for many years before the development of clinical bone metastases. There is evidence that cancer stem cells (CSCs) within breast tumours are the cells capable of metastasis, but the effect of the bone environment on the regulation of CSCs has not been investigated. […] CSC activity following isolation from the bone environment was measured using mammosphere colony formation.

In series [2] the test system is vasculature in trabecular bone. The series is described as follows: Blocking IL-1β signalling: blood vessels in the bone microenvironment of mice. It counts as in vivo. As for the experimental part:
Vasculature was visualised following CD34 and endomucin immunohistochemistry and the concentration of vascular endothelial growth factor (VEGF) and endothelin-1 in serum and/or bone marrow was determined by ELISA. Effects on bone volume were measured by Micro computed tomography (uCT).
(§3) Tumor cells, serum, and bone were subsequently resected for downstream analysis.

The test system of series [3] is MDA-MB-231 Luc2-TdTomato cells. Nature of the series: Spontaneous human breast cancer metastasis to human bone implants in NOD SCID mice. Type of series: in vivo. The procedure:
To model human breast cancer metastasis to human bone implants two human bone discs were implanted subcutaneously into 10-week old female NOD SCID mice (n=10/group) under isofluorane anaesthetic. Mice received an injection of 0.003 mg vetergesic and Septrin was added to the drinking water for 1 week following bone implantation. Mice were left for 4 weeks before injecting 1×10^5 MDA-MB-231 Luc2-TdTomato, MCF7 Luc2 or T47D Luc2 cells in 20% Martigel/79% PBS/1% […] into the two hind mammary fat pads. Primary tumor growth and development of metastases was monitored weekly using an IVIS […] system (Caliper Life Sciences) following sub-cutaneous injection of 30 mg/ml D-luciferin (Invitrogen). On termination of experiments mammary tumors, circulating tumor cells, serum and bone metastases were resected. RNA was processed for downstream analysis by real time PCR, and cell lysates were taken for protein analysis and whole tissue for histology as previously described (Nutter et al., 2014; Ottewell et al., 2014a).
as §3
Whole blood was centrifuged at 10,000 g for 5 minutes and the serum removed for ELISA assays. The cell pellet was re-suspended in 5 ml of FSM lysis solution (Sigma-Aldrich, Pool, UK) to lyse red blood cells. Remaining cells were re-pelleted, washed 3x in PBS and re-suspended in a solution of PBS/10% FCS. Samples from 10 mice per group were pooled prior to isolation of TdTomato positive tumor cells using a MoFlow High performance cell sorter (Beckman Coulter, Cambridge UK) with the […] laser line from a Coherent I-90C tenable argon ion (Coherent, Santa Clara, CA). TdTomato fluorescence was detected by a 555LP dichroic long pass and a 580/30 nm band pass filter. Acquisition and analysis of cells was performed using Summit 4.3 software. Following sorting cells were immediately placed in RNA protect cell reagent (Ambion, Paisley, Renfrew, UK) and stored at -80° C. before RNA extraction.

Series [4] can be described thus: Gevokizumab clinical pharmacokinetics. It counts as in vivo, human.
The subject of the next series is hsCRP. The series is described as follows: Gevokizumab: hsCRP change in type 2 diabetes patients. The settings on record: top dose 0.3 mg/kg (~20 mg) Q4W. It counts as in vivo, human.
For series [5], the system named is human breast cancer cells. Nature of the series: Spontaneous bone metastasis of human breast cancer cells implanted into mice. The settings on record: mouse.
Description: as §1, §2

For “Anakinra: IL-1 receptor antagonist, clinically available recombinant form of the receptor antagonist”, the “induction of CSC activity by the bone marrow in vitro” value in series [1] is “reverses induction of CSC activity”. For the same molecule, in series [2] (1 mg/kg for 21/31 days), the “average length of new blood vessels” value is “downwards trend”. In addition, the “endothelin 1 and VEGF in the bone marrow (ELISA)” value in series [2] (compared with control) is reported as “reduced concentrations”. For the same molecule, the “decrease in VEGF concentration” value in series [2] (mice treated with 1 mg/kg for 21 days) is on record as 22%. Also, the “decrease in the concentration of endothelin-1” value in series [2] (mice treated with 1 mg/kg for 31 days) is 69%. For the same molecule, the “average length of CD34^+ blood vessels in trabecular bone” value in series [2] (p < 0.01 vs control) was “reduced the average length of CD34^+ blood vessels”. Besides, in series [3] (1 mg/kg IL-1Ra daily or 10 mg/kg canakinumab s.c. every 14 days from day 7, control 7 out of 10), the “mice with metastasis detected in human bone implants” value is given as 4 out of 10. Also, in series [3] (Placebo 3.60E+06), the “bone metastasis, photons/sec mean values” was determined as 4.83E+04 photons/sec. Further, in series [3] (compared with control group), the “size of bone metastases” value is reported as “smaller than those detected in the control group”. In series [3] (mouse, in vivo), the “bone turnover and neovascularisation” value is “reduced bone turnover and neovascularisation”; the “onset of breast cancer metastasis in human bone” value is given as “delayed onset of breast cancer metastasis in human bone”. Moreover, the primary tumour growth entry in series [3] (murine model of spontaneous human breast cancer metastasis to human bone) is listed as “without affecting the development of primary breast cancer”. The “tumor cells counted in whole blood” value in series [3] (placebo 108 tumor cells/ml) was found to be 3 tumor cells/ml.

On to “gevokizumab: high-affinity, humanized monoclonal antibody of the IgG2 isotype to interleukin-1β; INN number 9310; allosteric inhibitor”, for which the Bioavailability result in series [4] (administered subcutaneously) is on record as “about 56%”. The half-life entry in series [4] (human, in vivo) was “about 35 days”. Moreover, in the series with hsCRP, the “reduction of hsCRP” value is reported as “up to 45%”.

B1: Vantictumab: a therapeutic antibody which binds 5/10 Frizzled receptors (anti-Wnt) (antibody, chains of the INN, looked up, V domains shown)
VH: EVQLVESGGGLVQPGGSLRLSCAASGFTFSHYTLSWVRQAPGKGLEWVSVISGDGSYTYYADSVKGRFTISSDNSKNTLYLQMNSLRAEDTAVYYCARNFIKYVFANWGQGTLVTVSS
VL: DIELTQPPSVSVAPGQTARISCSGDNIGSFYVHWYQQKPGQAPVLVIYDKSNRPSGIPERFSGSNSGNTATLTISGTQAEDEADYYCQSYANTLSLVFGGGTKLTVL
On to B1, for which the “induction of CSC activity by the bone marrow in vitro” value in series [1] was “reverses induction of CSC activity”. Further, the “spontaneous bone metastasis in vivo” value in series [5] was “prevents spontaneous bone metastasis”.
